In PubChem BioAssay (NCI):
Values joined by “and” are separate entries in the source; they are usually repeats but may differ in a detail not shown here. Identical values can stand only once.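 Protocol summary: plate cells (96-well), add compound at 5 concentrations, incubate 48 h, interpolate endpoints linearly. GI50 = concentration required for 50% inhibition of growth. TGI is the concentration that stops growth completely.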

Each compound was assayed on SNB-75 CNS (assay: growth of human tumour cells (NCI), 48 h).

SMILES	TGI	GI50
CC1(C)S[C@@H]2[C@H](NC(=O)C3(N)CCCCC3)C(=O)N2[C@H]1C(=O)O	> 100 µM	
NC(=O)/C=C/C(=O)c1c(Cl)cccc1Cl	2.96 µM	1.61 µM
CC1(C)N=C(N)N=C(N)N1c1ccc(CCCCc2ccc(Cl)cc2S(=O)(=O)F)c(Cl)c1	23 µM	1.39 µM
O=C(Nc1ccc(Nc2ccncc2)cc1)c1ccc([N+](=O)[O-])cc1	20 µM	4.26 µM
C(=NCCN1CCOCC1)=NC1CCCCC1	> 100 µM	
COc1ccccc1/C=N\N/C(N)=N\N=C\c1ccccc1OC	> 48.5 µM	0.149 µM
COc1cccc(CC(C)=C(c2ccc(OCCN(C)C)cc2)c2ccc(OCCN(C)C)cc2)c1	6.28 µM	1.46 µM
COC(=O)COc1ccccc1/C=C1\N=C(c2ccccc2)N(c2cc(C(F)(F)F)ccc2Cl)C1=O	> 100 µM	34.4 µM
C=C1C(=O)OC2CC(C)C(C(CC(C)=O)OC(C)=O)=CCC12 (configuration not stated)	54.2 µM	
S=C(Nc1ccc(Cl)cc1)Nc1ccc(-c2nc3ccccc3s2)cc1	35.5 µM	13.8 µM
COC(=O)C[C@](O)(CCCC(C)(C)O)C(=O)O[C@@H]1C(OC)=C[C@]23CCCN2CCc2cc4c(cc2[C@H]13)OCO4	0.657 µM and 0.0931 µM	0.0235 µM
CC(=O)Nc1ccc(S(=O)(=O)N2C(=O)CCC2C(=O)Nc2ccc(Br)cc2)cc1 (configuration not stated)	6.24 µM	1.81 µM
CO/N=C(/C)c1cccc(Nc2cc(-n3nnc4ccccc43)nc3ccccc23)c1	> 100 µM	> 100 µM
C[N+](C)(C)CC1CCCc2ccccc2C1=O (configuration not stated)	34.3 µM	
COc1cc(C(=O)N2CCN(C=O)C2=S)cc(OC)c1OC	34.6 µM	10.9 µM

What follows are compounds tested on BT-549 breast (assay: growth of human tumour cells (NCI), 48 h).

SMILES	TGI	GI50
CN(C)CCNC(=O)c1cccc2ccc(-c3ccc(O)cc3)nc12	19.5 µM	
CSc1nc(=O)n(CCC#N)nc1SC	55.1 µM	
COc1cc(Nc2ncccc2C(=O)NCc2cn(Cc3cccc(Oc4ccccc4)c3)nn2)cc(OC)c1	> 100 µM	7.16 µM
COc1cc(-c2oc(=O)ccc2C#Cc2ccccn2)cc(OC)c1OC	> 100 µM	4.42 µM
COc1cccc(C2CC(C)(O)Oc3cc4c(cc32)OCO4)c1O (configuration not stated)	62.4 µM	
Cn1cc(C2=C(c3ccc(N)cc3)C(=O)NC2=O)c2ccccc21	> 25 µM	11.4 µM
Cc1cc(Cl)cc(OCCn2cc(F)cn2)c1-c1nc(N)nc2c1CN(C(=O)NCC(C)(F)F)C2	> 100 µM	50.3 µM
COc1ccc(/C=C\[N+](=O)[O-])cc1OC	5.21 µM	2.26 µM
CCN(CC)CCC(CNc1ccnc2cc(Cl)ccc12)c1ccc(Cl)cc1 (configuration not stated)	3.4 µM	1.73 µM
COc1cccc(F)c1C(=O)c1cnc(NC2CCN(S(C)(=O)=O)CC2)nc1N	16.8 µM	5.45 µM
COC(=O)c1ccc2c(c1)nc(NC(=O)c1ccccc1)n2CCCc1ccccc1	> 100 µM	3.33 µM
Cc1ccc(S(=O)(=O)Nc2ccccc2C=O)cc1	58.8 µM	
O=C(Nc1ccc2ncccc2c1)Nc1ccc2ncccc2c1	> 100 µM	
CC1(C)S[C@@H]2[C@H](NC(=O)C3(N)CCCCC3)C(=O)N2[C@H]1C(=O)O	> 100 µM	
NC(=O)/C=C/C(=O)c1c(Cl)cccc1Cl	3.03 µM	1.59 µM
CC1(C)N=C(N)N=C(N)N1c1ccc(CCCCc2ccc(Cl)cc2S(=O)(=O)F)c(Cl)c1	24.3 µM	2.64 µM
O=C(Nc1ccc(Nc2ccncc2)cc1)c1ccc([N+](=O)[O-])cc1	28.2 µM	11.6 µM
C(=NCCN1CCOCC1)=NC1CCCCC1	> 100 µM	
COc1ccccc1/C=N\N/C(N)=N\N=C\c1ccccc1OC	3.56 µM	0.785 µM
COc1cccc(CC(C)=C(c2ccc(OCCN(C)C)cc2)c2ccc(OCCN(C)C)cc2)c1	8.88 µM	4.29 µM
COC(=O)COc1ccccc1/C=C1\N=C(c2ccccc2)N(c2cc(C(F)(F)F)ccc2Cl)C1=O	86.2 µM	28.4 µM
C=C1C(=O)OC2CC(C)C(C(CC(C)=O)OC(C)=O)=CCC12 (configuration not stated)	15.2 µM	
S=C(Nc1ccc(Cl)cc1)Nc1ccc(-c2nc3ccccc3s2)cc1	61.5 µM	26.3 µM
COC(=O)C[C@](O)(CCCC(C)(C)O)C(=O)O[C@@H]1C(OC)=C[C@]23CCCN2CCc2cc4c(cc2[C@H]13)OCO4		0.0288 µM
CC(=O)Nc1ccc(S(=O)(=O)N2C(=O)CCC2C(=O)Nc2ccc(Br)cc2)cc1 (configuration not stated)	8.38 µM	1.79 µM
CO/N=C(/C)c1cccc(Nc2cc(-n3nnc4ccccc43)nc3ccccc23)c1	> 100 µM	63.2 µM
C[N+](C)(C)CC1CCCc2ccccc2C1=O (configuration not stated)	33.4 µM	
COc1cc(C(=O)N2CCN(C=O)C2=S)cc(OC)c1OC	62.4 µM	25 µM

These compounds were tested on HS 578T breast (assay: growth of human tumour cells (NCI), 48 h).

SMILES	TGI	GI50
CN(C)CCNC(=O)c1cccc2ccc(-c3ccc(O)cc3)nc12	13.4 µM	
CSc1nc(=O)n(CCC#N)nc1SC	> 100 µM	
COc1cc(Nc2ncccc2C(=O)NCc2cn(Cc3cccc(Oc4ccccc4)c3)nn2)cc(OC)c1	> 100 µM	> 100 µM
COc1cc(-c2oc(=O)ccc2C#Cc2ccccn2)cc(OC)c1OC	> 24 µM	2.98 µM
COc1cccc(C2CC(C)(O)Oc3cc4c(cc32)OCO4)c1O (configuration not stated)	51.6 µM	
Cn1cc(C2=C(c3ccc(N)cc3)C(=O)NC2=O)c2ccccc21	> 16.1 µM	3.01 µM
Cc1cc(Cl)cc(OCCn2cc(F)cn2)c1-c1nc(N)nc2c1CN(C(=O)NCC(C)(F)F)C2	> 100 µM	
COc1ccc(/C=C\[N+](=O)[O-])cc1OC	24.7 µM	2.92 µM
CCN(CC)CCC(CNc1ccnc2cc(Cl)ccc12)c1ccc(Cl)cc1 (configuration not stated)	4.67 µM	1.66 µM
COc1cccc(F)c1C(=O)c1cnc(NC2CCN(S(C)(=O)=O)CC2)nc1N	15.9 µM	3.83 µM
COC(=O)c1ccc2c(c1)nc(NC(=O)c1ccccc1)n2CCCc1ccccc1	> 100 µM	30.2 µM
Cc1ccc(S(=O)(=O)Nc2ccccc2C=O)cc1	59.6 µM	
O=C(Nc1ccc2ncccc2c1)Nc1ccc2ncccc2c1	> 100 µM	
CC1(C)S[C@@H]2[C@H](NC(=O)C3(N)CCCCC3)C(=O)N2[C@H]1C(=O)O	> 100 µM	
NC(=O)/C=C/C(=O)c1c(Cl)cccc1Cl	5.15 µM	2.2 µM
CC1(C)N=C(N)N=C(N)N1c1ccc(CCCCc2ccc(Cl)cc2S(=O)(=O)F)c(Cl)c1	30.9 µM	4.05 µM
O=C(Nc1ccc(Nc2ccncc2)cc1)c1ccc([N+](=O)[O-])cc1	25.9 µM	5.8 µM
C(=NCCN1CCOCC1)=NC1CCCCC1	> 100 µM	
COc1ccccc1/C=N\N/C(N)=N\N=C\c1ccccc1OC	38.7 µM	0.447 µM
COc1cccc(CC(C)=C(c2ccc(OCCN(C)C)cc2)c2ccc(OCCN(C)C)cc2)c1	8.9 µM	3.58 µM
COC(=O)COc1ccccc1/C=C1\N=C(c2ccccc2)N(c2cc(C(F)(F)F)ccc2Cl)C1=O	> 100 µM	35.6 µM
C=C1C(=O)OC2CC(C)C(C(CC(C)=O)OC(C)=O)=CCC12 (configuration not stated)	> 100 µM	
S=C(Nc1ccc(Cl)cc1)Nc1ccc(-c2nc3ccccc3s2)cc1	39.2 µM	16.4 µM
COC(=O)C[C@](O)(CCCC(C)(C)O)C(=O)O[C@@H]1C(OC)=C[C@]23CCCN2CCc2cc4c(cc2[C@H]13)OCO4		0.0333 µM
CC(=O)Nc1ccc(S(=O)(=O)N2C(=O)CCC2C(=O)Nc2ccc(Br)cc2)cc1 (configuration not stated)	22.5 µM	3.05 µM
CO/N=C(/C)c1cccc(Nc2cc(-n3nnc4ccccc43)nc3ccccc23)c1	> 100 µM	42.8 µM
C[N+](C)(C)CC1CCCc2ccccc2C1=O (configuration not stated)	85.8 µM	
COc1cc(C(=O)N2CCN(C=O)C2=S)cc(OC)c1OC	> 100 µM	27.6 µM
